The subject of the assay is Potassium-transporting ATPase (Canis familiaris). Nature of the assay: Percent inhibition of gastric proton-pump enzyme H+/K+ ATPase was determined at 50 uM. The conditions noted are these: Canis lupus familiaris, Stomach.

Turning to `CCCCC/N=C(\N)Nc1nc(-c2cccc(OC)c2)cs1`, the inhibition was 25%. With `N#Cc1ccc2[nH]cc(-c3csc(NC(=N)N)n3)c2c1` the figure was 80%.

In the case of `N=C(N)Nc1nc(-c2ccccc2O)cs1`, the inhibition is 26%. For the compound `N=C(N)NCCc1c[nH]c2ccccc12`, the inhibition came to 15%. For `N/C(=N\Cc1ccccc1)Nc1nc(-c2ccc(O)cc2)cs1` the value was 49%. With `N=C(N)Nc1nc(-c2ccc(Cl)cc2)cs1` the figure was 48%; with `N=C(N)Nc1nc(-c2c[nH]c(C=O)c2)cs1`, 44%. Turning to `N=C(N)Nc1nc(-c2cccc(N)c2)cs1`, the inhibition came out at 45%. For `COc1ccc(-c2csc(NC(=N)NCc3ccccc3)n2)cc1OC` the value was 25%. For `Cc1sc(NC(=N)NCc2ccccc2)nc1-c1ccn(S(=O)(=O)c2ccccc2)c1C` the value was 35%; for `CCCCCC/N=C(\NC)Nc1nc(-c2c[nH]c(C)c2)cs1`, 68%. Take `Cn1cc(-c2csc(N=C(N)N)n2)cc1C=O`: the inhibition is 44%. As to `CN(C)c1cccc(-c2csc(NC(=N)N)n2)c1`, the inhibition stood at 52%.

On to `CN(C)Cc1ccccc1-c1csc(N=C(N)N)n1`, for which the inhibition turned out to be 27%. For `N=C(N)Nc1nc(-c2c[nH]c(CN3CCCCC3)c2)cs1` the value was 55%. On to `Cc1nc(-c2c[nH]c(C=O)c2)cs1`, for which the inhibition is 5%. For the compound `Cc1cc(-c2csc(C)n2)c[nH]1`, the inhibition was found to be 0%.

On to `Cc1ccc(-c2csc(N=C(N)N)n2)cc1`, for which the inhibition stood at 61%.

Take `Nc1nc(-c2c[nH]c(C=O)c2)cs1`: the inhibition amounted to 9%.

With `CCCCCCN(C)C(=N)Nc1nc(-c2c[nH]c(C)c2)cs1`, the inhibition worked out at 54%.

For the compound `COc1ccc(-c2csc(N=C(N)N)n2)cc1OC`, the inhibition was 41%. For `Cc1cc(-c2csc(NC(=N)N3CCCCC3)n2)c[nH]1` the value was 34%; for `N=C(NCc1ccccc1)Nc1nc(-c2cc3cc(F)ccc3[nH]2)cs1`, 49%; for `N=C(N)Nc1nc(-c2ccccc2)cs1`, 52%. For the compound `Cc1ccc(-c2csc(N=C(N)N)n2)n1C`, the inhibition was found to be 20%. Consider `Cc1cc(-c2csc(NC(=N)NCc3ccccc3)n2)cn1S(=O)(=O)c1ccccc1`, for which the inhibition worked out at 69%. With `Cc1cccc2[nH]cc(-c3csc(NC(=N)NCc4ccccc4)n3)c12` the figure was 103%; with `N/C(=N\Cc1ccccc1)Nc1nc(-c2cccc(O)c2)cs1`, 8%.

`N#Cc1ccc2[nH]cc(-c3csc(NC(=N)NCc4ccccc4)n3)c2c1`: the inhibition came to 50%. Turning to `Cc1cc(-c2csc(NC3=NCCN3C)n2)c[nH]1`, the inhibition came out at 13%.

Regarding `Cc1ccc(-c2csc(NC(=N)NCc3ccccc3)n2)[nH]1`, the inhibition was found to be 83%. As for `N=C(N)Nc1nc(-c2cc[nH]c2)cs1`, the inhibition came out at 68%. For `Cc1ccc(-c2csc(NC(=N)NCc3ccccc3)n2)cc1`, the inhibition came out at 16%. With `Cc1c(-c2csc(NC(=N)NCc3ccccc3)n2)ccn1S(=O)(=O)c1ccccc1` the figure was 54%. Take `Cc1cccc(-c2csc(NC(=N)NCc3ccccc3)n2)c1`: the inhibition was found to be 53%.

Consider `Cc1cc(-c2csc(N)n2)c[nH]1`, for which the inhibition stood at 17%.

As for `N=C(NCc1ccccc1)Nc1nc(-c2ccc(F)cc2)cs1`, the inhibition stood at 35%. For `Cc1sc(NC(=N)NCc2ccccc2)nc1-c1c[nH]c2ccccc12` the value was 34%; for `N=C(N)Nc1ccc(-c2ccccc2)cc1`, 16%; for `N=C(NCc1ccccc1)Nc1nc(-c2ccc(-c3ccccc3)cc2)cs1`, 5%. Turning to `Cc1cc(-c2csc(NC3=NCCCN3Cc3ccccc3)n2)c[nH]1`, the inhibition is 19%. With `N=C(NCc1ccccc1)Nc1nc(-c2ccccc2)cs1`, the inhibition was -1%. For `N=C(NCc1ccccc1)Nc1nc(-c2ccc(Cl)cc2)cs1` the value was 38%; for `N=C(N)Nc1nc(-c2ccc(-c3ccccc3)cc2)cs1`, 25%.

These data come from ChEMBL document CHEMBL1125091, “Antiulcer agents. 4-substituted 2-guanidinothiazoles: reversible, competitive, and selective inhibitors of gastric H+,K(+)-ATPase” (J Med Chem, 1990).
